# Laboratory results: patent publication US20220211605A1, “AGENT FOR PROTECTION AGAINST ATMOSPHERIC POLLUTANTS AND COMPOSITION FOR PROTECTION AGAINST ATMOSPHERIC POLLUTANTS” (SHOWA DENKO K.K., priority 2019, published 2022)
# Assays:
# [1] = test system: cell line derived from Lewis lung carcinoma (LLC); assay: Effect of suppressing invasion of cancer cells (CytoSelect invasion assay kit) exposed to atmospheric dust; type: cell-based; conditions: sample 10 μM for 24 hours, then atmospheric dust (NIST 1648a) added 500 μg/mL for 6 hours + 18 hours, fluorescence relative to control without atmospheric dust = 1
# Protocol: The effect of Na tocopherol phosphate on suppressing the invasion of cells in a cell line derived from Lewis lung carcinoma (LLC, JCRB Cell Bank) was measured under the following conditions. A CytoSelect invasion assay kit manufactured by Cell Biolabs, Inc. was used for a test.
# The LLC cells were seeded in a chamber plate for invasion tests attached to the above-mentioned invasion assay kit so that the concentration was 100000 cells/mL using a culture medium in which a Ham F10 medium and an L15 medium (both manufactured by Sigma-Aldrich) were mixed at the ratio of 3:7 (volume ratio), and cultured for 24 hours under the conditions of 37° C. and 5% CO2. Next, a sample, in which Na tocopherol phosphate or tocopherol acetate was dissolved in an aqueous solution of 0.05% (V/V) ethanol, was added to the culture medium so that the final concentration of Na tocopherol phosphate or tocopherol acetate was 10 μM, and culturing was further performed for 24 hours under the conditions of 37° C. and 5% CO2. […] Thereafter, the cells were stained using the above-mentioned invasion assay kit, and the fluorescence intensity at an excitation wavelength of 480 nm/an absorption wavelength of 570 nm was measured with a microplate reader i-Control (manufactured by Tecan Group Ltd.). […]
# [2] = test system: normal human epidermal keratinocytes (NHEK); assay: Effect of suppressing ROS production (dichlorofluorescein diacetate ROS assay kit) in NHEK exposed to atmospheric dust; type: cell-based; conditions: sample 10 μM for 24 hours, then atmospheric dust (NIST 1648a) added 500 μg/mL for 48 hours, fluorescence relative to control without atmospheric dust = 1
# Protocol: The effect of Na tocopherol phosphate on suppressing ROS production in normal human epidermal keratinocytes (NHEK, manufactured by KURABO INDUSTRIES LTD.) was measured under the following conditions.
# The NHEK cells were seeded in a HuMedia KG2 medium manufactured by KURABO INDUSTRIES LTD. at the seeding density of 10000 cells/cm^2, and cultured for 24 hours under the conditions of 37° C. and 5% CO2. Next, a sample, in which Na tocopherol phosphate or tocopherol acetate was dissolved in an aqueous solution of 0.05% (V/V) ethanol, was added to the culture medium so that the final concentration of Na tocopherol phosphate or tocopherol acetate was 10 μM, and culturing was performed for 24 hours under the conditions of 37° C. and 5% CO2. Furthermore, one obtained by adding 1 μL of the aqueous solution of 0.05% (V/V) ethanol to the culture medium and culturing for 24 hours was also prepared. […] Thereafter, the ROS production amount was measured using a ROS assay kit (manufactured by OZ BIOSCIENCES). […] After washing with PBS again, 100 μL of PBS was added, and the fluorescence intensity at an excitation wavelength of 485 nm/an absorption wavelength of 535 nm was measured with a microplate reader i-Control (manufactured by Tecan Group Ltd.). […]
# [3] = test system: cell line derived from Lewis lung carcinoma (LLC); assay: Effect of suppressing proliferation of cancer cells (WST-8) exposed to atmospheric dust; type: cell-based; conditions: sample 10 μM for 24 hours, then atmospheric dust (NIST 1648a) added 500 μg/mL for 48 hours, absorbance 450 nm relative to control without atmospheric dust = 1
# Protocol: The effect of Na tocopherol phosphate on suppressing the proliferation of cancer cells in a cell line derived from Lewis lung carcinoma (LLC, JCRB Cell Bank) was measured under the following conditions.
# The LLC cells were seeded at the seeding density of 50000 cells/cm^2 in a culture medium in which a Ham F10 medium and an L15 medium (both manufactured by Sigma-Aldrich) were mixed at the ratio of 3:7 (volume ratio), and cultured for 24 hours under the conditions of 37° C. and 5% CO2. Next, a sample, in which Na tocopherol phosphate or tocopherol acetate was dissolved in an aqueous solution of 0.05% (V/V) ethanol, was added to the culture medium so that the final concentration of Na tocopherol phosphate or tocopherol acetate was 10 μM, and culturing was performed for 24 hours. Furthermore, one obtained by adding 1 μL of the aqueous solution of 0.05% (VN) ethanol to the culture medium and culturing for 24 hours was also prepared. […] Thereafter, the culture medium was replaced with a medium containing 10% (VN) of WST-8 of Nacalai Tesque Inc., and after further culturing for 3 hours, the absorbance at the wavelength of 450 nm was measured with a microplate reader i-Control (manufactured by Tecan Group Ltd.). […]
# NRF2 gene = assay: Effect of promoting expression of NRF2 gene (quantitative real-time PCR, standardized to GAPDH) in NHEK exposed to atmospheric dust; type: cell-based, human; conditions: sample 10 μM for 24 hours, then atmospheric dust added 500 μg/mL for 48 hours, relative to control without atmospheric dust = 1
# Protocol: The effect of Na tocopherol phosphate on promoting the expression of an NRF2 gene in normal human epidermal keratinocytes (NHEK, manufactured by KURABO INDUSTRIES LTD.) was measured under the following conditions.
# The NHEK cells were seeded in a HuMedia KG2 medium manufactured by KURABO INDUSTRIES LTD. at the seeding density of 10000 cells/cm^2, and cultured for 24 hours under the conditions of 37° C. and 5% CO2. Next, a sample, in which Na tocopherol phosphate or tocopherol acetate was dissolved in an aqueous solution of 0.05% (V/V) ethanol, was added to the culture medium so that the final concentration of Na tocopherol phosphate or tocopherol acetate was 10 μM, and culturing was performed for 24 hours. Furthermore, one obtained by adding 5 μL of the aqueous solution of 0.05% (V/V) ethanol to the culture medium and culturing for 24 hours was also prepared. […] Using this cDNA as a template, the expression level of the NRF2 gene was quantitatively determined by quantitative real-time PCR using a primer specific to the NRF2 gene (Perfect Real Time Primer, manufactured by Takara Bio Inc.). As an internal standard gene, the expression level of GAPDH was quantitatively determined (primer used: Perfect Real Time Primer, manufactured by Takara Bio Inc.), and the expression level of the NRF2 gene was standardized based on the expression level of GAPDH. […]
smiles,measurement,setting,value
"CC(=O)Oc1c(C)c(C)c2c(c1C)CCC(C)(CCC[C@H](C)CCC[C@H](C)CCCC(C)C)O2 (stereo partly shown) [Tocopherol acetate, tocopherol acetate]",Relative cell invasion,[1],2.08
same,Relative ROS production amount,[2],1.67
same,Relative cell proliferation amount,[3],3.98
same,Relative gene expression level NRF2,NRF2 gene,0.71
